Laboratory results: article PMC4301629 (PLoS ONE, 2015)

Experiments:
HEK293/EBNA cells = assay: IP accumulation (IP-One HTRF) in untransduced HEK-293/EBNA cells; format: cell-based
β2-AR [1] = target: T1, β2-AR (Homo sapiens, UniProt P07550); assay: cAMP accumulation in untransduced HEK-293/EBNA cells; format: cell-based; conditions: HEK293/EBNA
T1 construct: HEK-293/EBNA cells are known to express β2-AR endogenously; endogenous in cells; host or cells: HEK-293/EBNA (untransduced or negative-control transduced)
T1 sequence (P07550 whole entry): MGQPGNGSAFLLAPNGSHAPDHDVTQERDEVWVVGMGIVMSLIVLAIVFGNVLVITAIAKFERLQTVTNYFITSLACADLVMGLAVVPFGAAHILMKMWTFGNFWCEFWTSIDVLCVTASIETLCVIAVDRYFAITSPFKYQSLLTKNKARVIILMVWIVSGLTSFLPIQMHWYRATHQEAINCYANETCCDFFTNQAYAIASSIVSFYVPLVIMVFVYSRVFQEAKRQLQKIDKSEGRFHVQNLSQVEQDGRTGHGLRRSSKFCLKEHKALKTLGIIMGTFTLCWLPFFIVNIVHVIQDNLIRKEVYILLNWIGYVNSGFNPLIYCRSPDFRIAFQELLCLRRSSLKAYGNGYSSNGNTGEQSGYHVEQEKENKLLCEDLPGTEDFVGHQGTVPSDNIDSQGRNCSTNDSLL

β2-AR [2] = target: T1, β2-AR; assay: MAPK activation (AlphaScreen SureFire p-ERK) in untransduced HEK-293/EBNA cells; format: cell-based; conditions: HEK293/EBNA
β2-AR [3] = target: T1, β2-AR; conditions: HEK293/EBNA; [125I-CYP] used as radioligand (footnote 1a); cited from earlier work
β2-AR [4] = target: T1, β2-AR; conditions: HEK293/EBNA; read-out: EC50 Ca2+; cited from earlier work
α1A-AR [5] = target: T2, α1A-AR (Homo sapiens, UniProt P35348); assay: LC-MS detection of IP1, IP2 and IP3 in α1A-AR_CHO stable cells; format: cell-based; parameters: expressed in transfected cells; conditions: α1A-AR CHO, Iso up to 1 mM
T2 sequence (P35348 1-466): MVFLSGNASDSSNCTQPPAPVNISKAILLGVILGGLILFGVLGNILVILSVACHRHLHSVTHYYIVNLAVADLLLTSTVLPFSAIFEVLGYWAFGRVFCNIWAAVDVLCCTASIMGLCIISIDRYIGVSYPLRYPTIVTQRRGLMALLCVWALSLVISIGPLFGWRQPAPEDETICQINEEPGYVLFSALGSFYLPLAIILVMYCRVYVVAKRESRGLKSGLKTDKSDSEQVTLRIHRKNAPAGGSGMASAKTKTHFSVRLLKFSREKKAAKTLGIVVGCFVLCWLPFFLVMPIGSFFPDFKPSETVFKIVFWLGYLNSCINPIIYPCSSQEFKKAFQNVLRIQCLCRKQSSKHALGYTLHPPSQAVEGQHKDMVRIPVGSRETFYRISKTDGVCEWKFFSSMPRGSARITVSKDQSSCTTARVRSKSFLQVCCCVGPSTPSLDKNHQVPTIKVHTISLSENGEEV
Procedure: (§1) After that, the medium was replaced with agonist solution in assay buffer (20 mM HEPES, 10 mM glucose, 1.8 mM CaCl2, 0.5 mM MgSO4, in HBSS 1X buffer, 50 mM LiCl) and cells were incubated at 37°C for 30 min. Stimulation was stopped by exchange of assay buffer with lysis buffer (100 μL 0.1N HCl/MeOH), and lysis proceeded for 30 min at 4°C. Cellular levels of inositol phosphates were determined using a Thermo LC-MS detection system following a published protocol. Chromatography was performed employing a BioBasic column AX (50 × 2.1 mm, Thermo). The mobile phase consisted of solvent A: 10 mM ammonium acetate, pH 6 in 30/70 acetonitrile/water, and solvent B: 1 mM ammonium acetate, pH 11 in 30/70 acetonitrile/water. A gradient solvent system was used starting with 0% solvent B, and analytes were eluted by increasing solvent B to 100% over 3 min. Each data point represents the average of triplicate determinations and each experiment was performed at least three times independently.
IP1, IP2, and IP3 levels were determined via LC-MS. Plots are representative of three independent experiments with each data point being the average of triplicates.

α1A-AR [6] = target: T2, α1A-AR; assay: MAPK activation (AlphaScreen SureFire p-ERK) in α1A-AR transduced HEK-293/EBNA cells; format: cell-based; parameters: expressed in transfected cells; host or cells: HEK-293/EBNA (baculovirus transduction, NaBu induction)
Procedure: (§2) Prior to experiments, cells were transduced with baculovirus strains designed for transient expression of α1A-AR or aldehyde oxidase (negative control). This was performed by incubating cells with virus (MOI 100–150) for 3 to 4 h, followed by exchange into fresh serum free growth medium supplemented with 4 mM sodium butyrate (NaBu). Cells were grown for another 14 to 18 h and then examined for agonist-evoked responses in transient Ca^2+ release, IP accumulation or pERK activation assays. The surface receptor expression density was determined by flow cytometry via immunofluorescence labeling of an N-terminal HA epitope tag on the receptor and radioligand binding in partially purified membranes.
Graphs shown reflect either pooled or representative data (see figure legends). For concentration-response analysis, results from Ca^2+ mobilization experiments were plotted as ΔF/F0 vs. agonist concentration and fit to a sigmoidal concentration-response equation using the GraphPad Prism software package. […] For radioligand binding experiments, B max values were calculated from maximum binding using the equation B max = (SB × ([…] + [L])/[L]), where SB is the specific binding expressed as fmol per mg of membrane protein, and [L] is the ligand concentration.

α1A-AR [7] = target: T2, α1A-AR; assay: LC-MS detection of IP1, IP2 and IP3 in α1A-AR transduced HEK-293/EBNA cells; format: cell-based; parameters: expressed in transfected cells; host or cells: HEK-293/EBNA (baculovirus transduction, NaBu induction); conditions: Iso up to 10 mM
Procedure: as §1, with “Virally transduced HEK-293/EBNA cells were resuspended in growth medium and seeded in poly-D-lysine coated 96-well black plates at a density of 100,000 cells/0.1 mL per well, Cells were allowed to attach for 2 hours at 37°C in a humidified atmosphere of 95% air and 5% CO2. After” for “After”

α1A-AR [8] = target: T2, α1A-AR; assay: Translocation of GFP-tagged β-arrestin-1/2 in HEK293 cells expressing FLAG-α1A-AR (confocal microscopy); format: cell-based; parameters: expressed in transfected cells; host or cells: HEK-293/EBNA (baculovirus transduction, NaBu induction); conditions: HEK293, 1 μM A-61603 or 1 mM Iso
Procedure: HEK293 cells were transiently co-transfected with FLAG-tagged α1A – AR and one of the following GFP-tagged proteins: Rab5 (Rab5 Q79L) variant, Rab11 (Rab11 S25N) variant, β-arrestin-1 or β-arrestin-2. Rab5 and Rab11 were kindly provided by Dr. Marino Zerial (Max Planck Institute of Molecular Cell Biology and Genetics, Dresden, Germany). […] After treatment, cells were fixed with freshly prepared 3.7% paraformaldehyde in PBS for 15 min at room temperature. Subsequently, cells were permeabilized with 0.1% Triton X-100 (Sigma-Aldrich) in PBS for 5 min, followed by nonspecific binding site blocking with 3% normal serum (Santa Cruz Biotechnology) in PBS for 1 h. Incubation with Alexa Fluor-568 conjugated anti-FLAG antibodies in blocking solution was done as directed by the manufacturer. Confocal microscopy was performed using a Zeiss LSM 510 META laser scanning microscope (Carl Zeiss, Inc., Thornwood, NY) equipped with a 60X objective, using the following laser wavelengths: excitation at 488 nm and emission at 505–530 nm; excitation at 543 nm and emission at 560–615 nm.
HEK293 cells were co-transfected with FLAG-tagged α1A – AR and GFP- tagged β-arrestin-1 (left panels) or β-arrestin-2 (right panels). […] Cells were then fixed, permeabilized, stained with Alexa Fluor-568 conjugated anti-FLAG antibodies, and analyzed employing confocal microscopy.

α1A-AR [9] = assay: Ca2+ transient response (FLIPR, fluo3) in α1A-AR transduced HEK-293/EBNA cells; format: cell-based; conditions: α1A-AR HEK-293/EBNA
Procedure: as §2
Cells were resuspended in Hank’s balanced salt solution (Invitrogen) supplemented with 2 mM CaCl2, 10 mM HEPES pH 7.4, 2.5 mM probenecid, plus 1g/L each of glucose and bovine serum albumin (BSA), and seeded in poly-D-lysine coated 96-well black plates with transparent bottom (Costar) at a density of 50,000 cells/0.1 mL per well. Cells were then incubated for 1 h at 37°C with an additional 0.1 mL of buffer containing 4 μM fluo3-AM that was diluted from a stock solution containing 1 mM fluo3-AM dye in DMSO with 10% pluronic acid. After dye loading incubation, plates were washed twice with 100 μL of buffer and refilled with 100 μL of assay buffer. In experiments testing the effect of antagonists, 25 μL of buffer from wells of washed cells were replaced with 25 μL of vehicle or 4× antagonist solution. Pre-incubation of ligand with dye-loaded cells proceeded for 5–30 minutes immediately prior to measurements of agonist-evoked responses. Agonist-evoked Ca^2+ mobilization responses of cell populations were monitored at room temperature simultaneously in all wells of the assay plate using the plate-imaging fluorometric reader FLIPR (MDS Analytical Technologies, Sunnyvale, CA). […] The amplitudes of Ca^2+ transient responses are reported as ΔF/F0, or fold-change in Ca^2+ dye fluorescence relative to the baseline signal ΔF/F0 = (F-F0)/F0 +1 (where ΔF is maximal fluorescence intensity observed following agonist application, F0 = baseline fluorescence, or average intensity measured over the 10 s interval prior to agonist application). Image acquisition rates were varied from 1 Hz during the first 100 s of measurements to 0.5 Hz for the remaining time of the recording.
Graphs shown reflect either pooled or representative data (see figure legends). For concentration-response analysis, results from Ca^2+ mobilization experiments were plotted as ΔF/F0 vs. agonist concentration and fit to a sigmoidal concentration-response equation using the GraphPad Prism software package. In cases where biphasic concentration-response curves were observed data were fit to a two-site concentration-response model: F(X)=R0+(Rmax−R0)[Fr1/(1+10^X-logEC50,1)+(1−Fr1)/(1+10^X-logEC50,2)] (1) , where X is the logarithm of the agonist concentration, R0 and Rmax are respectively the response minimum and maximum; Fr1 is the response fraction attributable to receptor characterized by half effective concentration of the first response phase (EC50,1), with the reminder response attributable to the second half effective concentration (EC50,2). For radioligand binding experiments, B max values were calculated from maximum binding using the equation B max = (SB × ([…] + [L])/[L]), where SB is the specific binding expressed as fmol per mg of membrane protein, and [L] is the ligand concentration.

CS(=O)(=O)Nc1c(O)ccc2c1CCCC2C1=NCCN1 (stereo not shown) [A-61603]
EC50 IP (HEK293/EBNA cells; HEK293/EBNA untransduced): BQL | IP formation (HEK293/EBNA cells; untransduced cells, data not shown): not detectable | EC50 cAMP (β2-AR [1]): BQL | EC50 p-ERK (β2-AR [2]): BQL | Ki (β2-AR [3]): 24 µM | EC50 (β2-AR [4]): 0.003 µM | cellular concentration of inositol phosphates IP1, IP2 and IP3 (α1A-AR [5]): concentration-dependent increases | times more potent at inducing p-ERK formation than Ca2+ mobilization (α1A-AR [6]; α1A-AR transduced HEK-293/EBNA): ~4 times | cellular levels of inositol phosphates IP1, IP2 and IP3 (α1A-AR [7]): concentration-dependent increases | translocation of β-arrestin-1 / β-arrestin-2 (α1A-AR [8]): did not induce significant translocation

COc1cc2ncnc(Nc3cccc(Cl)c3)c2cc1OC [AG1478]
effect of EGFR inhibition on Iso induced α1A-AR stimulation of ERK1/2 (α1A-AR [6]; data not shown): not affected

Cc1ccc(OCC(O)C(C)NC(C)C)c2c1CCC2 (stereo not shown) [ICI 118551]
attenuation of responses to high Iso concentrations (α1A-AR [9]; ICI 118551 at 10 nM): ~50% | effect of antagonist on Iso-evoked Ca2+ response (α1A-AR [9]; RS100329 10 nM, ICI 118551 10 nM, atenolol 1 μM): abolished responses to low Iso concentrations
